The values that follow come from the supplement of paper PMC10307832.

Test in all cases: relative viability (nuclei count vs DMSO), 5 days (fraction); higher = more cells survive
Compound in assay [1]: CCN(CCO)CCCC(C)Nc1ccnc2cc(Cl)ccc12 [Hydroxychloroquine] + CC(=O)c1c(C)c2cnc(Nc3ccc(N4CCNCC4)cn3)nc2n(C2CCCC2)c1=O [Palbociclib] (partner 0.5 µM)
The method, boiled down:
(§1)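 Relative viability is defined as nuclei in treated wells over nuclei in vehicle wells. Duplicate plates were run and medians reported. Lung cancer cell lines in 1536-well plates were dosed by pin tool one day after seeding, with one drug or with a fixed anchor-drug dose plus five library-drug doses (not always all listed) in √10 steps, and nuclei were counted after 5 days.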

Compound in assay [2]: CCN(CCO)CCCC(C)Nc1ccnc2cc(Cl)ccc12 [Hydroxychloroquine] + CS(=O)(=O)N1CCN(Cc2cc3nc(-c4cccc5[nH]ncc45)nc(N4CCOCC4)c3s2)CC1 [Pictilisib] (partner 1 µM)
In a few lines: as §1

Compound in assay [3]: CCN(CCO)CCCC(C)Nc1ccnc2cc(Cl)ccc12 [Hydroxychloroquine] + N=C(N)NC(=N)NCCc1ccccc1 [Phenformin] (partner 250 µM)
In a few lines:
as §1

Compound in assay [4]: CCN(CCO)CCCC(C)Nc1ccnc2cc(Cl)ccc12 [Hydroxychloroquine] + Nc1ncn([C@H]2C[C@H](O)[C@@H](CO)O2)c(=O)n1 [Decitabine] (partner 2 µM)
The method, boiled down: as §1

NCI-H2023: the relative viability in assay [1] (first compound 0.5 µM) is 0.376; in assay [1] (first compound 1.581 µM), 0.431; in assay [1] (first compound 5 µM), 0.349; in assay [1] (first compound 15.81 µM) it was 0.396; in assay [1] (first compound 50 µM), 0.386; in assay [2] (first compound 0.5 µM) it was 0.332. Further, the relative viability in assay [2] (first compound 1.581 µM) is 0.23; in assay [2] (first compound 5 µM), 0.23; in assay [2] (first compound 15.81 µM), 0.224; in assay [2] (first compound 50 µM) it was 0.249; in assay [3] (first compound 0.5 µM), 0.423; in assay [3] (first compound 1.581 µM), 0.433. Moreover, the relative viability in assay [3] (first compound 5 µM) amounted to 0.436; in assay [3] (first compound 15.81 µM), 0.4; in assay [3] (first compound 50 µM), 0.386; in assay [4] (first compound 0.5 µM), 0.231; in assay [4] (first compound 1.581 µM) it was 0.209; in assay [4] (first compound 5 µM) it was 0.214. Also, the relative viability was 0.227 in assay [4] (first compound 15.81 µM) and 0.211 in assay [4] (first compound 50 µM).
Regarding COR-L 105, the relative viability is 0.41 in assay [1] (first compound 0.5 µM); 0.354 in assay [1] (first compound 1.581 µM); 0.405 in assay [1] (first compound 5 µM); 0.391 in assay [1] (first compound 15.81 µM); 0.392 in assay [1] (first compound 50 µM); 0.392 in assay [2] (first compound 0.5 µM). Further, the relative viability in assay [2] (first compound 1.581 µM) came to 0.435; in assay [2] (first compound 5 µM), 0.425; in assay [2] (first compound 15.81 µM), 0.325; in assay [2] (first compound 50 µM) it was 0.338; in assay [3] (first compound 0.5 µM), 0.529; in assay [3] (first compound 1.581 µM), 0.476. Besides, the relative viability in assay [3] (first compound 5 µM) came out at 0.497; in assay [3] (first compound 15.81 µM), 0.351; in assay [3] (first compound 50 µM) it was 0.447; in assay [4] (first compound 0.5 µM), 0.669; in assay [4] (first compound 1.581 µM) it was 0.542; in assay [4] (first compound 5 µM) it was 0.588. The relative viability amounted to 0.583 in assay [4] (first compound 15.81 µM) and 0.605 in assay [4] (first compound 50 µM).
Take NCI-H1734: the relative viability was found to be 0.316 in assay [1] (first compound 0.5 µM); 0.296 in assay [1] (first compound 1.581 µM); 0.37 in assay [1] (first compound 5 µM); 0.305 in assay [1] (first compound 15.81 µM); 0.362 in assay [1] (first compound 50 µM); 0.507 in assay [2] (first compound 0.5 µM). In addition, the relative viability turned out to be 0.294 in assay [2] (first compound 1.581 µM); 0.462 in assay [2] (first compound 5 µM); 0.491 in assay [2] (first compound 15.81 µM); 0.47 in assay [2] (first compound 50 µM); 0.361 in assay [3] (first compound 0.5 µM); 0.42 in assay [3] (first compound 1.581 µM). Besides, the relative viability was 0.361 in assay [3] (first compound 5 µM); 0.358 in assay [3] (first compound 15.81 µM); 0.405 in assay [3] (first compound 50 µM); 0.486 in assay [4] (first compound 0.5 µM); 0.482 in assay [4] (first compound 1.581 µM); 0.459 in assay [4] (first compound 5 µM). The relative viability was determined as 0.491 in assay [4] (first compound 15.81 µM) and 0.497 in assay [4] (first compound 50 µM).
Turning to NCI-H3122, the relative viability in assay [1] (first compound 0.5 µM) is 0.208; in assay [1] (first compound 1.581 µM), 0.193; in assay [1] (first compound 5 µM), 0.194; in assay [1] (first compound 15.81 µM), 0.234; in assay [1] (first compound 50 µM), 0.21; in assay [2] (first compound 0.5 µM) it was 0.658. The relative viability in assay [2] (first compound 1.581 µM) is 0.574; in assay [2] (first compound 5 µM), 0.619; in assay [2] (first compound 15.81 µM), 0.58; in assay [2] (first compound 50 µM) it was 0.576; in assay [3] (first compound 0.5 µM) it was 0.379; in assay [3] (first compound 1.581 µM), 0.364. Also, the relative viability in assay [3] (first compound 5 µM) came to 0.373; in assay [3] (first compound 15.81 µM), 0.358; in assay [3] (first compound 50 µM), 0.344; in assay [4] (first compound 0.5 µM), 0.429; in assay [4] (first compound 1.581 µM), 0.413; in assay [4] (first compound 5 µM), 0.468. Further, the results for the relative viability in assay [4] (first compound 15.81 µM) and in assay [4] (first compound 50 µM) were 0.426 and 0.403, respectively.
As for HCC-78, the relative viability turned out to be 0.469 in assay [1] (first compound 0.5 µM); 0.48 in assay [1] (first compound 1.581 µM); 0.483 in assay [1] (first compound 5 µM); 0.527 in assay [1] (first compound 15.81 µM); 0.451 in assay [1] (first compound 50 µM); 0.21 in assay [2] (first compound 0.5 µM). Further, the relative viability in assay [2] (first compound 1.581 µM) is 0.176; in assay [2] (first compound 5 µM), 0.221; in assay [2] (first compound 15.81 µM) it was 0.224; in assay [2] (first compound 50 µM), 0.165; in assay [3] (first compound 0.5 µM), 0.809; in assay [3] (first compound 1.581 µM) it was 0.739. Also, the relative viability in assay [3] (first compound 5 µM) amounted to 0.716; in assay [3] (first compound 15.81 µM), 0.653; in assay [3] (first compound 50 µM), 0.741; in assay [4] (first compound 0.5 µM), 0.655; in assay [4] (first compound 1.581 µM), 0.638; in assay [4] (first compound 5 µM) it was 0.651. The figures for the relative viability in assay [4] (first compound 15.81 µM) and in assay [4] (first compound 50 µM) were 0.676 and 0.73, respectively.
NCI-H2085: the relative viability worked out at 0.473 in assay [1] (first compound 0.5 µM); 0.422 in assay [1] (first compound 1.581 µM); 0.48 in assay [1] (first compound 5 µM); 0.484 in assay [1] (first compound 15.81 µM); 0.455 in assay [1] (first compound 50 µM); 0.434 in assay [2] (first compound 0.5 µM). For the same cell line, the relative viability came to 0.509 in assay [2] (first compound 1.581 µM); 0.462 in assay [2] (first compound 5 µM); 0.392 in assay [2] (first compound 15.81 µM); 0.472 in assay [2] (first compound 50 µM); 0.762 in assay [3] (first compound 0.5 µM); 0.509 in assay [3] (first compound 1.581 µM). In addition, the relative viability in assay [3] (first compound 5 µM) is 0.688; in assay [3] (first compound 15.81 µM), 0.727; in assay [3] (first compound 50 µM), 0.692; in assay [4] (first compound 0.5 µM), 0.623; in assay [4] (first compound 1.581 µM), 0.507; in assay [4] (first compound 5 µM), 0.604. The relative viability in assay [4] (first compound 15.81 µM) worked out at 0.606; in assay [4] (first compound 50 µM), 0.578.
